Experimental data published in ChEMBL document CHEMBL1151757, “Synthesis, radiosynthesis, and biological evaluation of fluorine-18-labeled 2beta-carbo(fluoroalkoxy)-3beta-(3'-((Z)-2-haloethenyl)phenyl)nortropanes: candidate radioligands for in vivo imaging of the serotonin transporter with positron emission tomography” (J Med Chem, 2008).

How the values were obtained:
Thalamus [1] = assay: Drug uptake in anesthetized cynomolgus monkey brain thalamus after 6.5 mins postinjection; type: ADME, organism-based, Macaca fascicularis; set-up: unit not given here; conditions: in vivo
Midbrain [2] = assay: Drug uptake in anesthetized cynomolgus monkey brain midbrain after 6.5 mins postinjection; type: ADME, organism-based, Macaca fascicularis; set-up: unit not given here; conditions: in vivo
Midbrain [3] = assay: Drug uptake in anesthetized cynomolgus monkey brain midbrain after 55 mins postinjection; type: ADME, organism-based, Macaca fascicularis; set-up: unit not given here; conditions: in vivo
Thalamus [4] = assay: Drug uptake in anesthetized cynomolgus monkey brain thalamus after 135 mins postinjection; type: ADME, organism-based, Macaca fascicularis; set-up: unit not given here; conditions: in vivo, 2.25 h
Medulla [5] = assay: Drug uptake in anesthetized cynomolgus monkey brain medulla after 55 mins postinjection; type: ADME, organism-based, Macaca fascicularis; conditions: in vivo
[6] = Ratio of drug uptake in pons to cerebellum in anesthetized cynomolgus monkey after 145 mins postinjection; type: ADME, organism-based, Macaca fascicularis; conditions: in vivo
[7] = Ratio of drug uptake in putamen to cerebellum in anesthetized cynomolgus monkey after 9.5 mins postinjection; type: ADME, organism-based, Macaca fascicularis; conditions: in vivo
Pons [8] = assay: Drug uptake in anesthetized cynomolgus monkey brain pons after 6.5 mins postinjection; type: ADME, organism-based, Macaca fascicularis; conditions: in vivo
Medulla [9] = assay: Drug uptake in anesthetized cynomolgus monkey brain medulla after 175 mins postinjection; type: ADME, organism-based, Macaca fascicularis; conditions: in vivo
Pons [10] = assay: Drug uptake in anesthetized cynomolgus monkey brain pons after 45 mins postinjection; type: ADME, organism-based, Macaca fascicularis; conditions: in vivo, 0.75 h
[11] = Drug uptake in anesthetized cynomolgus monkey brain occipital lobe after 0.5 mins postinjection; type: ADME, organism-based, Macaca fascicularis; conditions: in vivo
Pons [12] = assay: Drug uptake in anesthetized cynomolgus monkey brain pons after 2.5 mins postinjection; type: ADME, organism-based, Macaca fascicularis; conditions: in vivo
Pons [13] = assay: Drug uptake in anesthetized cynomolgus monkey brain pons after 125 mins postinjection; type: ADME, organism-based, Macaca fascicularis; conditions: in vivo
Pons [14] = assay: Drug uptake in anesthetized cynomolgus monkey brain pons after 4.5 mins postinjection; type: ADME, organism-based, Macaca fascicularis; conditions: in vivo, 0.075 h
[15] = Drug uptake in anesthetized cynomolgus monkey brain occipital lobe after 145 mins postinjection; type: ADME, organism-based, Macaca fascicularis; conditions: in vivo
[16] = Drug uptake in anesthetized cynomolgus monkey brain occipital lobe after 22.5 mins postinjection; type: ADME, organism-based, Macaca fascicularis; conditions: in vivo, 0.375 h
Thalamus [17] = assay: Drug uptake in anesthetized cynomolgus monkey brain thalamus after 85 mins postinjection; type: ADME, organism-based, Macaca fascicularis; set-up: unit not given here; conditions: in vivo
Putamen [18] = assay: Drug uptake in anesthetized cynomolgus monkey brain putamen after 6.5 mins postinjection; type: ADME, organism-based, Macaca fascicularis; set-up: unit not given here; conditions: in vivo
Pons [19] = assay: Drug uptake in anesthetized cynomolgus monkey brain pons after 1.5 mins postinjection; type: ADME, organism-based, Macaca fascicularis; conditions: in vivo, 0.025 h
[20] = Ratio of drug uptake in pons to cerebellum in anesthetized cynomolgus monkey after 95 mins postinjection; type: ADME, organism-based, Macaca fascicularis; conditions: in vivo
Thalamus [21] = assay: Drug uptake in anesthetized cynomolgus monkey brain thalamus after 115 mins postinjection; type: ADME, organism-based, Macaca fascicularis; set-up: unit not given here; conditions: in vivo
[22] = Drug uptake in anesthetized cynomolgus monkey brain frontal lobe after 235 mins postinjection; type: ADME, organism-based, Macaca fascicularis; conditions: in vivo
Caudate [23] = assay: Drug uptake in anesthetized cynomolgus monkey brain caudate after 2.5 mins postinjection; type: ADME, organism-based, Macaca fascicularis, Caudate nucleus; conditions: in vivo
Midbrain [24] = assay: Drug uptake in anesthetized cynomolgus monkey brain midbrain after 125 mins postinjection; type: ADME, organism-based, Macaca fascicularis; set-up: unit not given here; conditions: in vivo
Midbrain [25] = assay: Drug uptake in anesthetized cynomolgus monkey brain midbrain after 9.5 mins postinjection; type: ADME, organism-based, Macaca fascicularis; set-up: unit not given here; conditions: in vivo
Pons [26] = assay: Drug uptake in anesthetized cynomolgus monkey brain pons after 55 mins postinjection; type: ADME, organism-based, Macaca fascicularis; conditions: in vivo
Thalamus [27] = assay: Drug uptake in anesthetized cynomolgus monkey brain thalamus after 155 mins postinjection; type: ADME, organism-based, Macaca fascicularis; set-up: unit not given here; conditions: in vivo
Caudate [28] = assay: Drug uptake in anesthetized cynomolgus monkey brain caudate after 0.5 mins postinjection; type: ADME, organism-based, Macaca fascicularis, Caudate nucleus; conditions: in vivo
Medulla [29] = assay: Drug uptake in anesthetized cynomolgus monkey brain medulla after 3.5 mins postinjection; type: ADME, organism-based, Macaca fascicularis; conditions: in vivo
Medulla [30] = assay: Drug uptake in anesthetized cynomolgus monkey brain medulla after 105 mins postinjection; type: ADME, organism-based, Macaca fascicularis; conditions: in vivo, 1.75 h
[31] = Drug uptake in anesthetized cynomolgus monkey brain frontal lobe after 165 mins postinjection; type: ADME, organism-based, Macaca fascicularis; conditions: in vivo, 2.75 h
Medulla [32] = assay: Drug uptake in anesthetized cynomolgus monkey brain medulla after 18.5 mins postinjection; type: ADME, organism-based, Macaca fascicularis; conditions: in vivo
[33] = Ratio of drug uptake in frontal lobe to cerebellum in anesthetized cynomolgus monkey after 125 mins postinjection; type: ADME, organism-based, Macaca fascicularis; conditions: in vivo
Pons [34] = assay: Drug uptake in anesthetized cynomolgus monkey brain pons after 18.5 mins postinjection; type: ADME, organism-based, Macaca fascicularis; conditions: in vivo
Putamen [35] = assay: Drug uptake in anesthetized cynomolgus monkey brain putamen after 75 mins postinjection; type: ADME, organism-based, Macaca fascicularis; set-up: unit not given here; conditions: in vivo, 1.25 h
Midbrain [36] = assay: Drug uptake in anesthetized cynomolgus monkey brain midbrain after 145 mins postinjection; type: ADME, organism-based, Macaca fascicularis; conditions: in vivo
Putamen [37] = assay: Drug uptake in anesthetized cynomolgus monkey brain putamen after 22.5 mins postinjection; type: ADME, organism-based, Macaca fascicularis; set-up: unit not given here; conditions: in vivo, 0.375 h
[38] = Drug uptake in anesthetized cynomolgus monkey brain frontal lobe after 175 mins postinjection; type: ADME, organism-based, Macaca fascicularis; conditions: in vivo
Pons [39] = assay: Drug uptake in anesthetized cynomolgus monkey brain pons after 145 mins postinjection; type: ADME, organism-based, Macaca fascicularis; conditions: in vivo
[40] = Ratio of drug uptake in putamen to cerebellum in anesthetized cynomolgus monkey after 0.5 mins postinjection; type: ADME, organism-based, Macaca fascicularis; conditions: in vivo
Caudate [41] = assay: Drug uptake in anesthetized cynomolgus monkey brain caudate after 225 mins postinjection; type: ADME, organism-based, Macaca fascicularis, Caudate nucleus; conditions: in vivo, 3.75 h
Pons [42] = assay: Drug uptake in anesthetized cynomolgus monkey brain pons after 225 mins postinjection; type: ADME, organism-based, Macaca fascicularis; conditions: in vivo, 3.75 h
Pons [43] = assay: Drug uptake in anesthetized cynomolgus monkey brain pons after 235 mins postinjection; type: ADME, organism-based, Macaca fascicularis; conditions: in vivo
Thalamus [44] = assay: Drug uptake in anesthetized cynomolgus monkey brain thalamus after 4.5 mins postinjection; type: ADME, organism-based, Macaca fascicularis; set-up: unit not given here; conditions: in vivo, 0.075 h
Pons [45] = assay: Drug uptake in anesthetized cynomolgus monkey brain pons after 22.5 mins postinjection; type: ADME, organism-based, Macaca fascicularis; conditions: in vivo, 0.375 h
[46] = Drug uptake in anesthetized cynomolgus monkey brain occipital lobe after 45 mins postinjection; type: ADME, organism-based, Macaca fascicularis; conditions: in vivo, 0.75 h
[47] = Ratio of drug uptake in pons to cerebellum in anesthetized cynomolgus monkey after 35 mins postinjection; type: ADME, organism-based, Macaca fascicularis; conditions: in vivo
[48] = Ratio of drug uptake in caudate to cerebellum in anesthetized cynomolgus monkey after 0.5 mins postinjection; type: ADME, organism-based, Macaca fascicularis; conditions: in vivo
Thalamus [49] = assay: Drug uptake in anesthetized cynomolgus monkey brain thalamus after 55 mins postinjection; type: ADME, organism-based, Macaca fascicularis; set-up: unit not given here; conditions: in vivo
Midbrain [50] = assay: Drug uptake in anesthetized cynomolgus monkey brain midbrain after 75 mins postinjection; type: ADME, organism-based, Macaca fascicularis; set-up: unit not given here; conditions: in vivo, 1.25 h
Pons [51] = assay: Drug uptake in anesthetized cynomolgus monkey brain pons after 165 mins postinjection; type: ADME, organism-based, Macaca fascicularis; conditions: in vivo, 2.75 h
Pons [52] = assay: Drug uptake in anesthetized cynomolgus monkey brain pons after 215 mins postinjection; type: ADME, organism-based, Macaca fascicularis; conditions: in vivo
[53] = Drug uptake in anesthetized cynomolgus monkey brain cerebellum after 225 mins postinjection; type: ADME, organism-based, Macaca fascicularis; conditions: in vivo, 3.75 h
[54] = Ratio of drug uptake in thalamus to cerebellum in anesthetized cynomolgus monkey after 27.5 mins postinjection; type: ADME, organism-based, Macaca fascicularis; conditions: in vivo
Medulla [55] = assay: Drug uptake in anesthetized cynomolgus monkey brain medulla after 22.5 mins postinjection; type: ADME, organism-based, Macaca fascicularis; conditions: in vivo, 0.375 h
[56] = Drug uptake in anesthetized cynomolgus monkey brain occipital lobe after 155 mins postinjection; type: ADME, organism-based, Macaca fascicularis; conditions: in vivo
[57] = Drug uptake in anesthetized cynomolgus monkey brain cerebellum after 2.5 mins postinjection; type: ADME, organism-based, Macaca fascicularis; conditions: in vivo
[58] = Ratio of drug uptake in occipital lobe to cerebellum in anesthetized cynomolgus monkey after 175 mins postinjection; type: ADME, organism-based, Macaca fascicularis; conditions: in vivo
[59] = Ratio of drug uptake in midbrain to cerebellum in anesthetized cynomolgus monkey after 85 mins postinjection; type: ADME, organism-based, Macaca fascicularis; conditions: in vivo
Putamen [60] = assay: Drug uptake in anesthetized cynomolgus monkey brain putamen after 165 mins postinjection; type: ADME, organism-based, Macaca fascicularis; conditions: in vivo, 2.75 h
Thalamus [61] = assay: Drug uptake in anesthetized cynomolgus monkey brain thalamus after 45 mins postinjection; type: ADME, organism-based, Macaca fascicularis; set-up: unit not given here; conditions: in vivo, 0.75 h
Midbrain [62] = assay: Drug uptake in anesthetized cynomolgus monkey brain midbrain after 15.5 mins postinjection; type: ADME, organism-based, Macaca fascicularis; set-up: unit not given here; conditions: in vivo
Midbrain [63] = assay: Drug uptake in anesthetized cynomolgus monkey brain midbrain after 215 mins postinjection; type: ADME, organism-based, Macaca fascicularis; conditions: in vivo

O=C(OCCC[18F])C1C2CCC(CC1c1cccc(/C=C\Br)c1)N2 (stereo not drawn)
Drug uptake (Thalamus [1]): 3.71 | Drug uptake (Midbrain [2]): 4.35 | Drug uptake (Midbrain [3]): 6.1 | Drug uptake (Thalamus [4]): 4.58 | Drug uptake (Medulla [5]): 5.66 | Ratio [6]: 1.6 | Ratio [7]: 0.9 | Drug uptake (Pons [8]): 3.6 | Drug uptake (Medulla [9]): 4.26 | Drug uptake (Pons [10]): 4.85 | Drug uptake [11]: 0.01 | Drug uptake (Pons [12]): 0.9 | Drug uptake (Pons [13]): 4.3 | Drug uptake (Pons [14]): 2.44 | Drug uptake [15]: 3.5 | Drug uptake [16]: 4.5 | Drug uptake (Thalamus [17]): 5.27 | Drug uptake (Putamen [18]): 4.42 | Drug uptake (Pons [19]): 0.38 | Ratio [20]: 1.2 | Drug uptake (Thalamus [21]): 4.82 | Drug uptake [22]: 2.01 | Drug uptake (Caudate [23]): 0.83 | Drug uptake (Midbrain [24]): 5.5 | Drug uptake (Midbrain [25]): 5.04 | Drug uptake (Pons [26]): 4.72 | Drug uptake (Thalamus [27]): 4.27 | Drug uptake (Caudate [28]): 0.01 | Drug uptake (Medulla [29]): 2.91 | Drug uptake (Medulla [30]): 5.19 | Drug uptake [31]: 2.58 | Drug uptake (Medulla [32]): 5.87 | Ratio [33]: 0.9 | Drug uptake (Pons [34]): 4.55 | Drug uptake (Putamen [35]): 5.63 | Drug uptake (Midbrain [36]): 5.18 | Drug uptake (Putamen [37]): 5.81 | Drug uptake [38]: 2.51 | Drug uptake (Pons [39]): 4.35 | Ratio [40]: 0.8 | Drug uptake (Caudate [41]): 3.46 | Drug uptake (Pons [42]): 3.21 | Drug uptake (Pons [43]): 3.26 | Drug uptake (Thalamus [44]): 2.48 | Drug uptake (Pons [45]): 4.89 | Drug uptake [46]: 4.61 | Ratio [47]: 0.9 | Ratio [48]: 0.9 | Drug uptake (Thalamus [49]): 5.46 | Drug uptake (Midbrain [50]): 6.07 | Drug uptake (Pons [51]): 3.84 | Drug uptake (Pons [52]): 3.17 | Drug uptake [53]: 2.03 | Ratio [54]: 0.9 | Drug uptake (Medulla [55]): 6.29 | Drug uptake [56]: 3.27 | Drug uptake [57]: 1.41 | Ratio [58]: 1.3 | Ratio [59]: 1.5 | Drug uptake (Putamen [60]): 4.31 | Drug uptake (Thalamus [61]): 5.49 | Drug uptake (Midbrain [62]): 5.7 | Drug uptake (Midbrain [63]): 4.58
